In patent US20240150360A1 (THE REGENTS OF THE UNIVERSITY OF MICHIGAN, priority 2021, published 2024):

Experiments:
CBP = target: T1, CBP (Homo sapiens, UniProt Q92793); test: CBP degradation in 22Rv1 cells (5 h); type: cell-based; conditions: 22Rv1 cells, 5 h; for Dmax: 22Rv1, 5 h, read-out: CBP Degradation (22Rv1, 5 h) DCmax
T1 construct: endogenous in cells; host or cells: 22Rv1 (ATCC CRL-2505) human prostate cancer cells
Description: (§1) Biological Assays. […] Cells with 3-8 passages after purchase were used in experiments.

P300 = target: T2, P300 (Homo sapiens, UniProt Q09472); test: P300 degradation in 22Rv1 cells (5 h); type: cell-based; conditions: 22Rv1 cells, 5 h; for Dmax: read-out: P300 Degradation (22Rv1, 5 h) DCmax
T2 construct: endogenous in cells; host or cells: 22Rv1 (ATCC CRL-2505) human prostate cancer cells
Description: as §1

22Rv1 cells = test: Cell growth inhibition assay (CellTiter-Glo) in 22Rv1; type: cell-based, human; conditions: Homo sapiens, 22Rv1, 96 h, 22Rv1 cells, 96 h incubation; read-out: Cell Growth Inhibition (IC50) 22Rv1
How it was run: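 22Rv1 prostate cancer cells (passages 3-8, DMEM with 10% FBS) were seeded at 4000 cells/well with compound, 3-fold dilutions from 10 μM final. After 96 h at 37° C and 5% CO2, growth was read by CellTiter-Glo 2.0 luminescence.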

HL60 = test: Cell growth inhibition in HL60; type: cell-based; conditions: Homo sapiens, HL-60, HL60 cells; read-out: Cell Growth Inhibition (IC50) HL60

T1 sequence (Q92793 whole entry): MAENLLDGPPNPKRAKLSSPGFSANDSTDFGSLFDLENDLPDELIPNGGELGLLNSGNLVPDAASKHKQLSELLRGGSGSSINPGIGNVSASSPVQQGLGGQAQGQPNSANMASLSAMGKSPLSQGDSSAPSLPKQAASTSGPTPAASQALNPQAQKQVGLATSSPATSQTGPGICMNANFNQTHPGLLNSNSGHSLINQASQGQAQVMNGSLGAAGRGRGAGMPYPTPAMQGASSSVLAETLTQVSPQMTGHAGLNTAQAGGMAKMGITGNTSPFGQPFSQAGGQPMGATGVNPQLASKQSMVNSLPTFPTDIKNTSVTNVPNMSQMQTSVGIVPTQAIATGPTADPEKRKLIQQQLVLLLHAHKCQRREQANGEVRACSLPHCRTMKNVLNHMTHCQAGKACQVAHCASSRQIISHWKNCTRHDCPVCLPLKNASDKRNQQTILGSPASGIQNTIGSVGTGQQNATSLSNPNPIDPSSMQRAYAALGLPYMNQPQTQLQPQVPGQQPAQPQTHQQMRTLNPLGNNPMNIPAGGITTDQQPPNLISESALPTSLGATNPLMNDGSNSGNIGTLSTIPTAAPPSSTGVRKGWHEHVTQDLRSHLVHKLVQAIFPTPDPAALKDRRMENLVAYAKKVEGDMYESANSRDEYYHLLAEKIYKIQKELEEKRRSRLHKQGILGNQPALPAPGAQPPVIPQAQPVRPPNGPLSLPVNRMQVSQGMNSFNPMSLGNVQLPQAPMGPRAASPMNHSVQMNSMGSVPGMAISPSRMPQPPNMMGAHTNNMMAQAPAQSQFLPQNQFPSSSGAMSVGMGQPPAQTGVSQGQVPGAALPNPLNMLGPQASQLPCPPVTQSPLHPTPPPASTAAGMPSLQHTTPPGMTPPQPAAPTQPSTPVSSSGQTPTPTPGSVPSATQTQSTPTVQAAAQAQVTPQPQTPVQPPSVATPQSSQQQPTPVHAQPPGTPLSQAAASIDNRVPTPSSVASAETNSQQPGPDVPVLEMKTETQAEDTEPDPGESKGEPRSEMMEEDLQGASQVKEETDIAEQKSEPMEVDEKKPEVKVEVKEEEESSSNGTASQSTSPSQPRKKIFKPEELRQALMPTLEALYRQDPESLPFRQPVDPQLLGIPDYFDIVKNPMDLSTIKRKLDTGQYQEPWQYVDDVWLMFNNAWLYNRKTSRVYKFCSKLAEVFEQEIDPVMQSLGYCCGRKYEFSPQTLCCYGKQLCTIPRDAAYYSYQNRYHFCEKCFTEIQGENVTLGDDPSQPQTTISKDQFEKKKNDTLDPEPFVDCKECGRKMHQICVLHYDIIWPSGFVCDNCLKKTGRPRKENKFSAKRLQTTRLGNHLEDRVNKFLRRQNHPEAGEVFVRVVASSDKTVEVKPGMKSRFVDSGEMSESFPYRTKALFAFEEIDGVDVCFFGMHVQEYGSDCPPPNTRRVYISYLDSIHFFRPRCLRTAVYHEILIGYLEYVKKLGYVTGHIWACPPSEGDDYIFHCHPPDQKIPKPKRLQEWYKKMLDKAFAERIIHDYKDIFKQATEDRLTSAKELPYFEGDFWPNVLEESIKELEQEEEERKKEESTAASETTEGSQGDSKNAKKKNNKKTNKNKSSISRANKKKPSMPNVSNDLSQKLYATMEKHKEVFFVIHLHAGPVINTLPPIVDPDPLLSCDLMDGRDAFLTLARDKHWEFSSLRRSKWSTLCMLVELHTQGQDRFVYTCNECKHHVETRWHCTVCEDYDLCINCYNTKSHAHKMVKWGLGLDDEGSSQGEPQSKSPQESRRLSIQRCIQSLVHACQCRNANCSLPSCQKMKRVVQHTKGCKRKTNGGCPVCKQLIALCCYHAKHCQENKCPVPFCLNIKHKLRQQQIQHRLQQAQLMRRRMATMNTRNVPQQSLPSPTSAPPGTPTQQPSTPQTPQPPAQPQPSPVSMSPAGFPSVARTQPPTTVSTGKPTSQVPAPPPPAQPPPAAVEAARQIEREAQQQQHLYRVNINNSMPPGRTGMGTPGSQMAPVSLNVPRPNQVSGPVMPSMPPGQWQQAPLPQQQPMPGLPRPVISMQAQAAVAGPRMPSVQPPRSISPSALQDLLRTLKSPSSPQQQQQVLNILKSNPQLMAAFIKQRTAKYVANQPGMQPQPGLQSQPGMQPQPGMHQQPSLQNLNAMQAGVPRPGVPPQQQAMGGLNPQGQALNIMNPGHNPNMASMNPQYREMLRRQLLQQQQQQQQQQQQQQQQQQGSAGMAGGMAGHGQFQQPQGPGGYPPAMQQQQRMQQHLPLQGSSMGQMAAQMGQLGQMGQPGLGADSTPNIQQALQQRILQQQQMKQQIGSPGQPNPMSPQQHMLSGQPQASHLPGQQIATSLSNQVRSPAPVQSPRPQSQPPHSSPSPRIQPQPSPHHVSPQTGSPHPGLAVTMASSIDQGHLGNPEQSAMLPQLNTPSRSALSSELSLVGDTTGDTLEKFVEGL
T2 sequence (Q09472 whole entry): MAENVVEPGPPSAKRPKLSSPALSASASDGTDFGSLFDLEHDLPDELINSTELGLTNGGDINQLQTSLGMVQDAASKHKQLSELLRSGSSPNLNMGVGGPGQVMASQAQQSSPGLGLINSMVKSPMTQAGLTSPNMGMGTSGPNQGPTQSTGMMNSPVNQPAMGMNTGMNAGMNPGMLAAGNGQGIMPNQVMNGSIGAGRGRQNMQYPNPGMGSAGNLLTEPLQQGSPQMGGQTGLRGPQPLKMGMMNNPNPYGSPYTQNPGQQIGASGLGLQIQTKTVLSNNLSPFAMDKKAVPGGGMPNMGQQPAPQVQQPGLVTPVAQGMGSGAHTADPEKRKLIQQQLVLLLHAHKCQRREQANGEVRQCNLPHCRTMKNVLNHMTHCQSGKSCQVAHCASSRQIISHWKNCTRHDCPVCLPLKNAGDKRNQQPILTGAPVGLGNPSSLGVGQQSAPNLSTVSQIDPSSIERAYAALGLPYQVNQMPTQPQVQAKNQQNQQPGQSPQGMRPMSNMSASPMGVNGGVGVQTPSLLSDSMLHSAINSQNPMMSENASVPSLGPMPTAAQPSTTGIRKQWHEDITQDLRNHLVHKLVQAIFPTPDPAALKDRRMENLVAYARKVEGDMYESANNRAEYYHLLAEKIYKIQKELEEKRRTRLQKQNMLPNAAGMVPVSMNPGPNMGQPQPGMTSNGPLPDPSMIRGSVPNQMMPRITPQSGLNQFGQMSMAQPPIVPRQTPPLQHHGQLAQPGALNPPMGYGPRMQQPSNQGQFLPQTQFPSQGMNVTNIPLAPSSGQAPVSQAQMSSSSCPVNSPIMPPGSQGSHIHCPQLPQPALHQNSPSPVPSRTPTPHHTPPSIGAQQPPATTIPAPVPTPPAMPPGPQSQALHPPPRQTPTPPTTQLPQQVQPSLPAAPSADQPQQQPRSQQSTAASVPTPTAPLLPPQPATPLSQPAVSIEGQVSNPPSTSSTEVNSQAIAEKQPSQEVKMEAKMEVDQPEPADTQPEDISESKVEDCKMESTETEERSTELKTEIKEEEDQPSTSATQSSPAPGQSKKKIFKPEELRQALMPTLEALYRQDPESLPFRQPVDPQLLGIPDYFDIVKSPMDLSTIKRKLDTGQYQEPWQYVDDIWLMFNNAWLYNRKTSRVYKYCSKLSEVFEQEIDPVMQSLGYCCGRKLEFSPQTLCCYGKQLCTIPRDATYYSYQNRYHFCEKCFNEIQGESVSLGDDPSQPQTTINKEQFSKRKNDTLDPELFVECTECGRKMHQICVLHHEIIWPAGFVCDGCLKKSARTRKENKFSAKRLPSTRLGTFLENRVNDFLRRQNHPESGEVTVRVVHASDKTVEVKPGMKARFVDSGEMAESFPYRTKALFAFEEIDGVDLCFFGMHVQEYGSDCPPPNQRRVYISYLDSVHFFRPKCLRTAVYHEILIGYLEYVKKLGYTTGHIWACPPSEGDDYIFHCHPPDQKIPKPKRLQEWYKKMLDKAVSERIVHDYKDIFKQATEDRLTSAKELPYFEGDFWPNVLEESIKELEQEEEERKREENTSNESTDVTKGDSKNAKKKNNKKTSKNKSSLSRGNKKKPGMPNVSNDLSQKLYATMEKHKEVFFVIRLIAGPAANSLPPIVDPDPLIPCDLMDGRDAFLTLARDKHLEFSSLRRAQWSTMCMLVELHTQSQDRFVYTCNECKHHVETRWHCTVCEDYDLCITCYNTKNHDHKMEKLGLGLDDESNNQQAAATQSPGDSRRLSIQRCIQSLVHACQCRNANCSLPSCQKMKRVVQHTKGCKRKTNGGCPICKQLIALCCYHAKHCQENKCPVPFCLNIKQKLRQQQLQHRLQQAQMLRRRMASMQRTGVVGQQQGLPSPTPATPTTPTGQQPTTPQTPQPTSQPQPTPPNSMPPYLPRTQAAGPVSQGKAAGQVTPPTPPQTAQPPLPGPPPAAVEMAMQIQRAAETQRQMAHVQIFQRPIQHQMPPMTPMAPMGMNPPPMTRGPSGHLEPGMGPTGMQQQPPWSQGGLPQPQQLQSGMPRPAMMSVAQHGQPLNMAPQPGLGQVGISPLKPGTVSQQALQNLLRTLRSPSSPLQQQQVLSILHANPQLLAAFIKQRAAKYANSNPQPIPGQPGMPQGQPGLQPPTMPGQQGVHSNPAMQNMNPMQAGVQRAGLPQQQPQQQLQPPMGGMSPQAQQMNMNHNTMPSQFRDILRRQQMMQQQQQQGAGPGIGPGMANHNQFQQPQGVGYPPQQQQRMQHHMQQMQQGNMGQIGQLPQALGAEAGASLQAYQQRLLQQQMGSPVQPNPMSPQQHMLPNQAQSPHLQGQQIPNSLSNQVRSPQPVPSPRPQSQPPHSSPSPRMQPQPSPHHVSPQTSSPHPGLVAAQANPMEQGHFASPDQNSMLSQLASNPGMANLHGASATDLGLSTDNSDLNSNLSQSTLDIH

SMILES	Dmax (CBP) [%]	DC50 (CBP) [µM]	DC50 (P300) [µM]	Dmax (P300) [%]	IC50 (22Rv1 cells) [µM]	IC50 (HL60) [µM]
Cc1noc(C)c1-c1ccc2c(c1)nc([C@@H]1CCCC(=O)N1c1ccc(F)c(F)c1)n2C1CCN(C(=O)CCN2Cc3cc4c(cc3C2)C(=O)N(C2CCC(=O)NC2=O)C4=O)CC1 (stereo partly drawn) [CP-065, 6-(3-(4-(2-((S)-1-(3,4-difluorophenyl)-6-oxopiperidin-2-yl)-5-(3,5-dimethylisoxazol-4-yl)-1H-benzo[d]imidazol-1-yl)piperidin-1-yl)-3-oxopropyl)-2-(2,6-dioxopiperidin-3-yl)-6,7-dihydropyrrolo[3,4-f]isoindole-1,3(2H,5H)-dione]	< 50	> 1	> 1	< 50	> 10	> 10
CC(=O)N1CCc2c(c(N3CCCc4cc(C5CC5)c(C(F)F)cc43)nn2C2CCN(C(=O)CN3Cc4cc5c(cc4C3)C(=O)N(C3CCC(=O)NC3=O)C5=O)CC2)C1 (stereo not drawn) [CP-013, 6-(2-(4-(5-acetyl-3-(6-cyclopropyl-7-(difluoromethyl)-3,4-dihydroquinolin-1(2H)-yl)-4,5,6,7-tetrahydro-1H-pyrazolo[4,3-c]pyridin-1-yl)piperidin-1-yl)-2-oxoethyl)-2-(2,6-dioxopiperidin-3-yl)-6,7-dihydropyrrolo[3,4-f]isoindole-1,3(2H,5H)-dione]	> 90	< 0.01	< 0.01	> 90	< 1	< 1
CC(=O)c1cc2c(cc1C(F)F)N(c1nn(C3CCN(C(=O)CN4Cc5cc6c(cc5C4)C(=O)N(C4CCC(=O)NC4=O)C6=O)CC3)c3c1CN(C(C)=O)CC3)CCC2 (stereo not drawn) [CP-019, 6-(2-(4-(5-acetyl-3-(6-acetyl-7-(difluoromethyl)-3,4-dihydroquinolin-1(2H)-yl)-4,5,6,7-tetrahydro-1H-pyrazolo[4,3-c]pyridin-1-yl)piperidin-1-yl)-2-oxoethyl)-2-(2,6-dioxopiperidin-3-yl)-6,7-dihydropyrrolo[3,4-f]isoindole-1,3(2H,5H)-dione]	< 50	> 1	> 1	< 50	> 10	< 1
CC(=O)N1CCc2c(c(N3CCCc4cc(C)c(C(F)F)cc43)nn2C2CCN(C(=O)CN3Cc4cc5c(cc4C3)C(=O)N(C3CCC(=O)NC3=O)C5=O)CC2)C1 (stereo not drawn) [CP-011, 6-(2-(4-(5-acetyl-3-(7-(difluoromethyl)-6-methyl-3,4-dihydroquinolin-1(2H)-yl)-4,5,6,7-tetrahydro-1H-pyrazolo[4,3-c]pyridin-1-yl)piperidin-1-yl)-2-oxoethyl)-2-(2,6-dioxopiperidin-3-yl)-6,7-dihydropyrrolo[3,4-f]isoindole-1,3(2H,5H)-dione]	> 90	< 0.01	< 0.01	> 70	< 1	< 1
CC(=O)N1CCc2c(c(-c3cccc4ccncc34)nn2C2CCN(C(=O)CN3Cc4cc5c(cc4C3)C(=O)N(C3CCC(=O)NC3=O)C5=O)CC2)C1 (stereo not drawn) [CP-082, 6-(2-(4-(5-acetyl-3-(isoquinolin-8-yl)-4,5,6,7-tetrahydro-1H-pyrazolo[4,3-c]pyridin-1-yl)piperidin-1-yl)-2-oxoethyl)-2-(2,6-dioxopiperidin-3-yl)-6,7-dihydropyrrolo[3,4-f]isoindole-1,3(2H,5H)-dione]	< 50	> 1	> 1	< 50	> 10	> 10
Cc1noc(C)c1-c1ccc2c(c1)nc([C@@H]1CCCC(=O)N1c1ccc(F)c(F)c1)n2C1CCN(C(=O)CN2Cc3cc4c(cc3C2)C(=O)N(C2CCC(=O)NC2=O)C4)CC1 (stereo partly drawn) [CP-062, 3-(6-(2-(4-(2-((S)-1-(3,4-difluorophenyl)-6-oxopiperidin-2-yl)-5-(3,5-dimethylisoxazol-4-yl)-1H-benzo[d]imidazol-1-yl)piperidin-1-yl)-2-oxoethyl)-1-oxo-3,5,6,7-tetrahydropyrrolo[3,4-f]isoindol-2(1H)-yl)piperidine-2,6-dione]	< 50	< 1	< 0.1	> 50	> 10	> 10
CC(=O)N1CCc2cc3c(cc2C1)CCCN3c1nn(C2CCN(C(=O)CN3Cc4cc5c(cc4C3)C(=O)N(C3CCC(=O)NC3=O)C5=O)CC2)c2c1CN(C(C)=O)CC2 (stereo not drawn) [CP-080, 6-(2-(4-(5-acetyl-3-(7-acetyl-3,4,6,7,8,9-hexahydropyrido[3,4-g]quinolin-1(2H)-yl)-4,5,6,7-tetrahydro-1H-pyrazolo[4,3-c]pyridin-1-yl)piperidin-1-yl)-2-oxoethyl)-2-(2,6-dioxopiperidin-3-yl)-6,7-dihydropyrrolo[3,4-f]isoindole-1,3(2H,5H)-dione]	> 70	< 0.01	< 0.01	> 70	> 10	> 10
Cc1noc(C)c1-c1ccc2c(c1)nc([C@@H]1CCCC(=O)N1c1ccc(F)c(F)c1)n2C1CCN(C(=O)CN2Cc3cc4c(cc3C2)C(=O)N(C2CCC(=O)NC2=O)C4=O)CC1 (stereo partly drawn) [CP-061, 6-(2-(4-(2-((S)-1-(3,4-difluroophenyl)-6-oxopiperidin-2-yl)-5-(3,5-dimethylisoxazol-4-yl)-1H-benzo[d]imidazol-1-yl)piperidin-1-yl)-2-oxoethyl)-2-(2,6-dioxopiperidin-3-yl)-6,7-dihydropyrrolo[3,4-f]isoindole-1,3(2H,5H)-dione]	> 50	< 0.1	> 1	< 50	> 10	> 10

Next, values leading:

Dmax (CBP) [%]	DC50 (CBP) [µM]	DC50 (P300) [µM]	Dmax (P300) [%]	IC50 (22Rv1 cells) [µM]	IC50 (HL60) [µM]	SMILES
> 90	< 0.01	< 0.01	> 90	< 0.1	< 0.1	CC(=O)N1CCc2c(c(N3CCCc4cc(-c5cnn(C)c5)c(C(F)F)cc43)nn2[C@H]2CC[C@@H](CN3CCc4cc5c(cc4C3)C(=O)N(C3CCC(=O)NC3=O)C5=O)CC2)C1 (relative stereo) [CP-050, 6-((4-(5-acetyl-3-(7-(difluoromethyl)-6-(1-methyl-1H-pyrazol-4-yl)-3,4-dihydroquinolin-1(2H)-yl)-4,5,6,7-tetrahydro-1H-pyrazolo[4,3-c]pyridin-1-yl)cyclohexyl)methyl)-2-(2,6-dioxopiperidin-3-yl)-5,6,7,8-tetrahydro-1H-pyrrolo[3,4-g]isoquinoline-1,3(2H)-dione]
< 50	> 1	> 1	< 50	> 10	< 10	Cn1cc(-c2cc3c(cc2C(F)F)N(c2nn(C4CCN(C(=O)CN5Cc6cc7c(cc6C5)C(=O)N(C5CCC(=O)NC5=O)C7=O)CC4)c4c2CN(CC(C)(F)F)CC4)CCC3)cn1 (stereo not drawn) [CP-059, 6-(2-(4-(3-(7-(difluoromethyl)-6-(1-methyl-1H-pyrazol-4-yl)-3,4-dihydroquinolin-1(2H)-yl)-5-(2,2-difluoropropyl)-4,5,6,7-tetrahydro-1H-pyrazolo[4,3-c]pyridin-1-yl)piperidin-1-yl)-2-oxoethyl)-2-(2,6-dioxopiperidin-3-yl)-6,7-dihydropyrrolo[3,4-f]isoindole-1,3(2H,5H)-dione]
< 50	> 1	> 1	< 50	< 1	< 0.1	CC(=O)N1CCc2c(c(N3CCCc4cc(Br)c(C(F)F)cc43)nn2C2CCN(C(=O)CN3Cc4cc5c(cc4C3)C(=O)N(C3CCC(=O)NC3=O)C5=O)CC2)C1 (stereo not drawn) [CP-016, 6-(2-(4-(5-acetyl-3-(6-bromo-7-(difluoromethyl)-3,4-dihydroquinolin-1(2H)-yl)-4,5,6,7-tetrahydro-1H-pyrazolo[4,3-c]pyridin-1-yl)piperidin-1-yl)-2-oxoethyl)-2-(2,6-dioxopiperidin-3-yl)-6,7-dihydropyrrolo[3,4-f]isoindole-1,3(2H,5H)-dione]
< 50	> 1	> 1	< 50	> 10	> 10	Cn1cc(-c2cc3c(cc2C(F)F)N(c2nn(C4CCN(C(=O)CN5Cc6cc7c(cc6C5)C(=O)N(C5CCC(=O)NC5=O)C7=O)CC4)c4c2CNCC4)CCC3)cn1 (stereo not drawn) [CP-057, 6-(2-(4-(3-(7-(difluoromethyl)-6-(1-methyl-1H-pyrazol-4-yl)-3,4-dihydroquinolin-1(2H)-yl)-4,5,6,7-tetrahydro-1H-pyrazolo[4,3-c]pyridin-1-yl)piperidin-1-yl)-2-oxoethyl)-2-(2,6-dioxopiperidin-3-yl)-6,7-dihydropyrrolo[3,4-f]isoindole-1,3(2H,5H)-dione]
> 90	< 0.01	< 0.01	> 70	< 0.1	< 0.1	CC(=O)N1CCc2c(c(N3CCCc4cc(-c5cnn(C)c5)c(C(F)F)cc43)nn2C2CCC(CCN3CCc4cc5c(cc4C3)C(=O)N(C3CCC(=O)NC3=O)C5=O)CC2)C1 (stereo not drawn) [CP-045, 6-(2-(4-(5-acetyl-3-(7-(difluoromethyl)-6-(1-methyl-1H-pyrazol-4-yl)-3,4-dihydroquinolin-1(2H)-yl)-4,5,6,7-tetrahydro-1H-pyrazolo[4,3-c]pyridin-1-yl)cyclohexyl)ethyl)-2-(2,6-dioxopiperidin-3-yl)-5,6,7,8-tetrahydro-1H-pyrrolo[3,4-g]isoquinoline-1,3(2H)-dione]
